Source: patent publication US6737383B1, “Herbicidal oxadiazolidines” (priority 1999, dated 2004)

Tests used:
[1] = tested on: rape; assay: Test B pre/postemergence rape; assay type: in vivo, Brassica napus
How it was run: (§1)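 Response is a visual 0-to-10 score relative to untreated plants, where 0 means no effect and 10 means complete control, taken twelve to sixteen days after application. Treatments went onto soil at planting and onto foliage of 1- to 4-leaf plants, using a surfactant-containing non-phytotoxic solvent.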

[2] = tested on: surinam grass; assay: Test B pre/postemergence surinam grass; assay type: in vivo, Brachiaria decumbens
How it was run: as §1

[3] = tested on: corn; assay: Test B pre/postemergence corn; assay type: in vivo, Zea mays
How it was run: as §1

[4] = tested on: bedstraw; assay: Test B pre/postemergence bedstraw; assay type: in vivo, Galium aparine; settings: Preemergence
How it was run: as §1

[5] = tested on: crabgrass; assay: Test B pre/postemergence crabgrass; assay type: in vivo, Digitaria sanguinalis
How it was run: as §1

[6] = tested on: blackgrass; assay: Test B pre/postemergence blackgrass; assay type: in vivo, Alopecurus myosuroides
How it was run: as §1

[7] = tested on: wheat; assay: Test B pre/postemergence wheat; assay type: in vivo, Triticum aestivum
How it was run: as §1

[8] = tested on: sugar beet; assay: Test B pre/postemergence sugar beet; assay type: in vivo, Beta vulgaris
How it was run: as §1

[9] = tested on: morningglory; assay: Test B pre/postemergence morningglory; assay type: in vivo, Ipomoea hederacea
How it was run: as §1

[10] = tested on: wild oat; assay: Test B pre/postemergence wild oat; assay type: in vivo, Avena fatua
How it was run: as §1

[11] = tested on: cocklebur; assay: Test B pre/postemergence cocklebur; assay type: in vivo, Xanthium strumarium
How it was run: as §1

[12] = tested on: giant foxtail; assay: Test B pre/postemergence giant foxtail; assay type: in vivo, Setaria faberii
How it was run: as §1

[13] = tested on: velvetleaf; assay: Test B pre/postemergence velvetleaf; assay type: in vivo, Abutilon theophrasti
How it was run: as §1

[14] = tested on: soybean; assay: Test B pre/postemergence soybean; assay type: in vivo, Glycine max
How it was run: as §1

[15] = tested on: purple nutsedge; assay: Test B pre/postemergence purple nutsedge; assay type: in vivo, Cyperus rotundus
How it was run: as §1

[16] = tested on: pigweed; assay: Test B pre/postemergence pigweed; assay type: in vivo, Amaranthus retroflexus
How it was run: as §1

[17] = Postemergence, Rate 125 g/ha, scale of 0 to 10 where 0 is no effect and 10 is complete control
[18] = Postemergence, Rate 1000 g/ha, scale 0 to 10 (0 no effect, 10 complete control)
[19] = Preemergence, Rate 125 g/ha, scale of 0 to 10 where 0 is no effect and 10 is complete control
[20] = Preemergence, Rate 250 g/ha, scale 0 (no effect) to 10 (complete control)
[21] = Rate 250 g/ha, Postemergence, scale 0 to 10, 0 is no effect, 10 is complete control
[22] = Rate 500 g/ha, Postemergence, scale 0 to 10, 0 is no effect, 10 is complete control
[23] = Rate 500 g/ha, Preemergence, scale 0 to 10 (0 no effect, 10 complete control)
[24] = Rate 1000 g/ha, Preemergence, scale 0 to 10 (0 no effect, 10 complete control)

CCOP(=O)(Cn1c(=O)on(C(=O)N(c2ccc(F)cc2F)C(C)C)c1=O)OCC [Compound 736]
Rape plant response rating [1, 17]: 0
Rape plant response rating [1, 18]: 0
Plant response rating, Rape [1, 19]: 0
Rape plant response rating [1, 20]: 0
Rape plant response rating [1, 21]: 0
Rape plant response rating [1, 22]: 0
Rape plant response rating [1, 23]: 2
Plant response rating, Rape [1, 24]: 2
B. signalgrass plant response rating [2, 17]: 0
B. signalgrass plant response rating [2, 18]: 7
Plant response rating, B. signalgrass [2, 19]: 3
B. signalgrass plant response rating [2, 20]: 3
B. signalgrass plant response rating [2, 21]: 0
B. signalgrass plant response rating [2, 22]: 0
B. signalgrass plant response rating [2, 23]: 8
Plant response rating, B. signalgrass [2, 24]: 9
Corn plant response rating [3, 17]: 4
Corn plant response rating [3, 18]: 4
Plant response rating, Corn [3, 19]: 2
Corn plant response rating [3, 20]: 2
Corn plant response rating [3, 21]: 3
Corn plant response rating [3, 22]: 4
Corn plant response rating [3, 23]: 2
Plant response rating, Corn [3, 24]: 9
Plant response rating, Bedstraw ([4]; Rate 125 g/ha, scale of 0 to 10 where 0 is no effect and 10 is complete control): 0
Bedstraw plant response rating ([4]; Rate 250 g/ha, scale 0 (no effect) to 10 (complete control)): 0
Bedstraw plant response rating ([4]; Rate 500 g/ha, scale 0 to 10 (0 no effect, 10 complete control)): 8
Crabgrass plant response rating [5, 17]: 3
Crabgrass plant response rating [5, 18]: 6
Plant response rating, Crabgrass [5, 19]: 3
Crabgrass plant response rating [5, 20]: 4
Crabgrass plant response rating [5, 21]: 3
Crabgrass plant response rating [5, 22]: 4
Crabgrass plant response rating [5, 23]: 9
Plant response rating, Crabgrass [5, 24]: 9
Blackgrass plant response rating [6, 17]: 0
Blackgrass plant response rating [6, 18]: 7
Plant response rating, Blackgrass [6, 19]: 2
Blackgrass plant response rating [6, 20]: 4
Blackgrass plant response rating [6, 21]: 2
Blackgrass plant response rating [6, 22]: 3
Blackgrass plant response rating [6, 23]: 9
Plant response rating, Blackgrass [6, 24]: 10
Wheat plant response rating [7, 17]: 2
Plant response rating, Wheat [7, 19]: 3
Wheat plant response rating [7, 20]: 3
Wheat plant response rating [7, 21]: 2
Wheat plant response rating [7, 22]: 2
Wheat plant response rating [7, 23]: 8
Plant response rating, Wheat [7, 24]: 9
Sugarbeets plant response rating [8, 17]: 0
Plant response rating, Sugarbeets [8, 19]: 0
Sugarbeets plant response rating [8, 20]: 0
Sugarbeets plant response rating [8, 21]: 0
Sugarbeets plant response rating [8, 22]: 0
Sugarbeets plant response rating [8, 23]: 3
Plant response rating, Sugarbeets [8, 24]: 5
Morningglory plant response rating [9, 17]: 6
Morningglory plant response rating [9, 18]: 7
Plant response rating, Morningglory [9, 19]: 0
Morningglory plant response rating [9, 20]: 2
Morningglory plant response rating [9, 21]: 6
Morningglory plant response rating [9, 22]: 5
Morningglory plant response rating [9, 23]: 6
Plant response rating, Morningglory [9, 24]: 6
Wild oats plant response rating [10, 17]: 2
Plant response rating, Wild oats [10, 19]: 2
Wild oats plant response rating [10, 20]: 9
Wild oats plant response rating [10, 21]: 3
Wild oats plant response rating [10, 22]: 3
Wild oats plant response rating [10, 23]: 9
Plant response rating, Wild oats [10, 24]: 10
Cocklebur plant response rating [11, 17]: 0
Cocklebur plant response rating [11, 18]: 10
Plant response rating, Cocklebur [11, 19]: 0
Cocklebur plant response rating [11, 20]: 2
Cocklebur plant response rating [11, 21]: 0
Cocklebur plant response rating [11, 22]: 3
Cocklebur plant response rating [11, 23]: 2
Plant response rating, Cocklebur [11, 24]: 2
Giant foxtail plant response rating [12, 17]: 2
Giant foxtail plant response rating [12, 18]: 6
Plant response rating, Giant foxtail [12, 19]: 8
Giant foxtail plant response rating [12, 20]: 9
Giant foxtail plant response rating [12, 21]: 2
Giant foxtail plant response rating [12, 22]: 7
Giant foxtail plant response rating [12, 23]: 9
Plant response rating, Giant foxtail [12, 24]: 8
Velvetleaf plant response rating [13, 17]: 2
Plant response rating, Velvetleaf [13, 19]: 0
Velvetleaf plant response rating [13, 20]: 0
Velvetleaf plant response rating [13, 21]: 2
Velvetleaf plant response rating [13, 22]: 3
Velvetleaf plant response rating [13, 23]: 4
Plant response rating, Velvetleaf [13, 24]: 3
Soybean plant response rating [14, 17]: 3
Plant response rating, Soybean [14, 19]: 0
Soybean plant response rating [14, 20]: 2
Soybean plant response rating [14, 21]: 4
Soybean plant response rating [14, 22]: 3
Soybean plant response rating [14, 23]: 2
Plant response rating, Soybean [14, 24]: 3
Nutsedge plant response rating [15, 17]: 0
Nutsedge plant response rating [15, 18]: 5
Plant response rating, Nutsedge [15, 19]: 0
Nutsedge plant response rating [15, 20]: 0
Nutsedge plant response rating [15, 21]: 0
Nutsedge plant response rating [15, 22]: 2
Nutsedge plant response rating [15, 23]: 10
Plant response rating, Nutsedge [15, 24]: 8
Redroot pigweed plant response rating [16, 17]: 2
Redroot pigweed plant response rating [16, 18]: 3
Plant response rating, Redroot pigweed [16, 19]: 0
Redroot pigweed plant response rating [16, 20]: 2
Redroot pigweed plant response rating [16, 22]: 0
Redroot pigweed plant response rating [16, 23]: 2
Plant response rating, Redroot pigweed [16, 24]: 2
